For one assay, the target named is EZH2 (Homo sapiens (Human), UniProt Q15910). As to the kind of experiment: E-cadherin promoter luciferase reporter gene primary screening in 293T cells. Format: cell-based. Particulars: 293T cells treated for 24 hours, Dual-Glo luciferase. An excerpt:
EZH2 suppresses the expression of downstream E-cadherin, and upon EZH2 suppression, expression of E-cadherin will increase. Based on such principle, a reporter gene expression vector was constructed using luciferase.
The amplified fragments after PCR and the PGL4.1 vector (purchased from TAKARA, Japan) were respectively subjected to enzyme digestion with SacI and BglII (purchased from TAKARA, Japan), and then purified with PCR cleanup kit (Axygen PCR cleanup kit). Subsequently, the purified and enzyme-digested PCR products was ligated to the purified and enzyme-digested PGL4.1 vector using ligase solution I (DNA Ligation Kit Ver.2.1, purchased from TAKARA, Japan), and subjected to transformation. Single clones were then screened out and subjected to sequencing, and the obtained positive plasmid containing promoter fragments of Ecadherin was named E-cadherin RE-PGL4.1.
Meanwhile, a Renilla fluorescent vector was constructed using PCDNA4.1 (purchased from Thermofisher, USA) as the template to amplify the fragment of CMV promoter. After enzymatic digestion of the amplified CMV sequences and pGL4.70 vector (purchased from Promega, USA) with KpnI and XhoI (purchased from Promega, USA), purification was conducted with PCR cleanup kit (Axygen PCR cleanup kit). Then the enzyme-digested PCR product was ligated to the enzyme-digested PGL4.70 vector using ligase solution I (DNA Ligation Kit Ver.2.1, purchased from TAKARA, Japan) and the resultant was subjected to transformation. Subsequently single clones were screened and subjected to sequencing, and the obtained plasmid that contained CMV sequence was named as Plasmid Renilla luciferase-pGL4.70. Said plasmid utilized CMV promoter to achieve high expression of Renilla luciferase, which served as the control fluorescence for the primary screening system.
The cells were firstly added with 20 μL Dual-Glo® Luciferase Assay Reagent, then incubated under room temperature for 10 minutes, and read on microplate reader Spectramax i3 (Molecular Devices, USA) to obtain the data of primary screening, which is shown in Table 1.
(In a reporter assay the amount or activity of a reporter protein is the signal.)

The target in assay [1] is PRC2 protein complex comprising EZH2(Y641F) (Homo sapiens (Human), UniProt Q15910, Y641F). As to the kind of experiment: EZH2(Y641F) TR-FRET enzymatic activity assay. To be noted: for activity compared with control compounds in the assay using a TR-FRET kit: versus GSK126 and EPZ6438. For orientation: In TR-FRET formats the signal depends on donor and acceptor labels being close together.
Sequence of PRC2 protein complex comprising EZH2(Y641F) (Q15910 whole entry Y641F): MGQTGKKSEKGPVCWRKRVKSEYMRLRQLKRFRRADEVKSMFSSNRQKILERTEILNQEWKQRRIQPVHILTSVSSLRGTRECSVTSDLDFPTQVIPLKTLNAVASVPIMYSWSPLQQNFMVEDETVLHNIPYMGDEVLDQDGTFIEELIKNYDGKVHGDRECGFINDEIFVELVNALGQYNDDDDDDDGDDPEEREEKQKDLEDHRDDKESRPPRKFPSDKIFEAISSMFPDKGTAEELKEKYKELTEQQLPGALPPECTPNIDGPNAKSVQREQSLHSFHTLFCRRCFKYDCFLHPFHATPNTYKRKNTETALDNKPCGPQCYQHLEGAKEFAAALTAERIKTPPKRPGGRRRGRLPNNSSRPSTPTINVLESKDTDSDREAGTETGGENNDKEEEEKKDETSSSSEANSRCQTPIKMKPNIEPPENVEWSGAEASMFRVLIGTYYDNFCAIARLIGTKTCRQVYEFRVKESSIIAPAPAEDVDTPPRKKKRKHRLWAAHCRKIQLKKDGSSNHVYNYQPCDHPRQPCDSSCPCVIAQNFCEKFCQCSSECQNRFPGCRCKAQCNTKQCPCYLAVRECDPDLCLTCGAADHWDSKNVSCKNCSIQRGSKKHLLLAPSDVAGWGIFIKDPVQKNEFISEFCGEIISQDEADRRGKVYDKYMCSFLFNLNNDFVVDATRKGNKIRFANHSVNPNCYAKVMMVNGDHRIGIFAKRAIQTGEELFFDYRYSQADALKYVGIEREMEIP
Sequence of PRC2 protein complex comprising EZH2(Y641F) (O75530 whole entry partner): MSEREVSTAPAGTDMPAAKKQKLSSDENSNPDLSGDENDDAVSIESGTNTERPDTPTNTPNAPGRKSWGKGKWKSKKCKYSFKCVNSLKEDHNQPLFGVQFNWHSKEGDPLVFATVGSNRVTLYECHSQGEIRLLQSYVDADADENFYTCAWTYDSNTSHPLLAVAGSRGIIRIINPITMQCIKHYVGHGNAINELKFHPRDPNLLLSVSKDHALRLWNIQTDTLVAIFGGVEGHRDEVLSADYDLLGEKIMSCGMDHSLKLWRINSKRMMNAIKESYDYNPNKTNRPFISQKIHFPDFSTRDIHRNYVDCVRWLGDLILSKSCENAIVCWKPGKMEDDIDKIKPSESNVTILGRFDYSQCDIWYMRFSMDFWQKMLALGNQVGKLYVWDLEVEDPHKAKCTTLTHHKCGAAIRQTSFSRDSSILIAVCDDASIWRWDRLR
Sequence of PRC2 protein complex comprising EZH2(Y641F) (Q15022 whole entry partner): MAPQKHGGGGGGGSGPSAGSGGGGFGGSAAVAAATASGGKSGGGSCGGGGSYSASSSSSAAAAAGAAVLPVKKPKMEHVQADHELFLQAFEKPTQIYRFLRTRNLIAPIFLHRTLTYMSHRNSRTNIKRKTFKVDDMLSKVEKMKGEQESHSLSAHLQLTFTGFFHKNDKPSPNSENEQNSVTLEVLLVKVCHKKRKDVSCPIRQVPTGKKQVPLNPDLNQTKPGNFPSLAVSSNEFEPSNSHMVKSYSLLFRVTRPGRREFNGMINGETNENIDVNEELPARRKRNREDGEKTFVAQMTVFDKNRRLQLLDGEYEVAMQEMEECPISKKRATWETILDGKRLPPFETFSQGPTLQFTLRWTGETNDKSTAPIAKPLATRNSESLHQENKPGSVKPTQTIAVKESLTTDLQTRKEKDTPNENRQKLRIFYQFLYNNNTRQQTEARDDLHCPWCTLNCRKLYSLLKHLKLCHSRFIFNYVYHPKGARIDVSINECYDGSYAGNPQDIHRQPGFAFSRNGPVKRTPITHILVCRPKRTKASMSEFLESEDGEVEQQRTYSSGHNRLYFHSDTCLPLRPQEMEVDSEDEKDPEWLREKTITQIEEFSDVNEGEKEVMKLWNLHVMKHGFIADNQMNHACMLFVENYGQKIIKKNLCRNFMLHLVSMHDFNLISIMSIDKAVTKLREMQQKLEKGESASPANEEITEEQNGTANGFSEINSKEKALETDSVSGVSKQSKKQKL
Sequence of PRC2 protein complex comprising EZH2(Y641F) (Q09028 whole entry partner): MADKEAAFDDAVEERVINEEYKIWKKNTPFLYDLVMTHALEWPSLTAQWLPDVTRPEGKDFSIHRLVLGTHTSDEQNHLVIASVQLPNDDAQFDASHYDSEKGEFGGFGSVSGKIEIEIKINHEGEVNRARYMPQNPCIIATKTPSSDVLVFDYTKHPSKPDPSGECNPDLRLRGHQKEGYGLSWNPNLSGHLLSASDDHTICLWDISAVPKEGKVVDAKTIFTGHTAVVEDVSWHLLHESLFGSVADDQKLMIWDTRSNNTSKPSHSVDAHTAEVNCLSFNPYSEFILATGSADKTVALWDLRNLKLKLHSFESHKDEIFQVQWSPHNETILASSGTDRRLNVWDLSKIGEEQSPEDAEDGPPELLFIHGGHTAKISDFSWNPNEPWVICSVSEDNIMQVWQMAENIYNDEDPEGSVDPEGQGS
Sequence of PRC2 protein complex comprising EZH2(Y641F) (Q6ZN18 whole entry partner): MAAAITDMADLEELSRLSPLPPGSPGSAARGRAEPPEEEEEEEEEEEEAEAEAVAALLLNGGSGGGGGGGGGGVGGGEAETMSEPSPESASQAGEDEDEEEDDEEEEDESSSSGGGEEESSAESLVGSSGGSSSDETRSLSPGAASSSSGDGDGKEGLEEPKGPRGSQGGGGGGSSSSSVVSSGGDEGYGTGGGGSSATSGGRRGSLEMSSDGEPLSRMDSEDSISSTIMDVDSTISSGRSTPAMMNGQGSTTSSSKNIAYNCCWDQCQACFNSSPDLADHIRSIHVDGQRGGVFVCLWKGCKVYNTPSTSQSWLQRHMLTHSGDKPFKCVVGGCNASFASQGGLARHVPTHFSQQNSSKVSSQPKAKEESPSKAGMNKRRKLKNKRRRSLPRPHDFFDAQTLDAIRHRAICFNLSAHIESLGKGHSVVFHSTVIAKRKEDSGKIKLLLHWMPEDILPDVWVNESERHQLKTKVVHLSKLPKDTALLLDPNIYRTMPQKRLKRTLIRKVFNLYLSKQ
Procedure: Subsequently 5 μL of the assay antibody, H3K27me3-Eu(K)Ab (purchased from cisbio bioassays, USA, #61 KC3KAE) and 5 μL Streptavidin-XL665 (purchased from cisbio bioassays, USA, #610SAXLA), were added and incubated for 1 hour at room temperature.

Assay [2] concerns H3K27m3 methylation in Pfeiffer cells. Kind of assay: Western Blot of H3K27m3 methylation in Pfeiffer cells. Format: cell-based. Particulars: Homo sapiens, 72 hours treatment, H3K27m3 methylation by Western Blot. Here is the method:
Meanwhile, the inventors further conducted Western Blot with Pfeiffer cells (purchased from ATCC, USA) for verification. […] Effect of compounds on H3K27m3 methylation in cells was assessed.

The source of these data is patent publication US10647700B2, “EZH2 inhibitor and use thereof” (TARAPEUTICS SCIENCE INC., priority 2017, dated 2020).

What is called IC50 is the concentration that inhibits the measured activity by half. A low value points to greater potency in that assay.

Sequence of EZH2 (Q15910 whole entry): as the sequence (Q15910 whole entry Y641F) above, with F641Y counted along it
Sequence of EZH2 (O75530 whole entry partner): as the sequence (O75530 whole entry partner) above
Sequence of EZH2 (Q15022 whole entry partner): as the sequence (Q15022 whole entry partner) above
Sequence of EZH2 (Q09028 whole entry partner): as the sequence (Q09028 whole entry partner) above

In the case of `CCN(C(=O)C1CCCC1)c1cc(-c2ccc(CN3CCNCC3)cc2)cc(C(=O)NCc2c(C)cc(C)[nH]c2=O)c1C` [Compound 25, N-((4,6-dimethyl-2-oxo-1,2-dihydropyridin-3-yl)methyl)-5-(N-ethylcyclopentanecarboxamido)-4-methyl-4′-((4-piperazin-1-yl)methyl)-4-methyl-[1,1′-diphenyl]-3-carboxamide], the “1 μM relative fluorescence intensity” value on EZH2 (compound 1 μM) is recorded as 116.28. On EZH2 (compound 10 μM), the “10 μM relative fluorescence intensity” value is on record as 228.14. In addition, the IC50 turned out to be 58.6 nM in assay [1] and 0.063 µM in assay [2]. The “activity compared with control compounds in the assay using a TR-FRET kit” value (“activity compared with control compounds” for short) in assay [1] was “superior activity than control compounds GSK126 and EPZ6438”.
`CCN(C(=O)C1CC1)c1cc(-c2cnc(N3CCN(CC4CC4)CC3)cc2C)cc(C(=O)NCc2c(C)cc(C)[nH]c2=O)c1C` [Compound 71, 5-(6-(4-(cyclopropylmethyl)piperazin-1-yl)-4-methylpyridin-3-yl)-N-((4,6-dimethyl-2-oxo-1,2-dihydropyridin-3-yl)methyl)-3-(N-ethylcyclopropanecarboxamido)-2-methylbenzamide]: the “activity compared with control compounds” value in assay [1] was “superior activity than control compounds GSK126 and EPZ6438”. In assay [2], the IC50 was 0.041 µM.
Take `CCN(C(=O)C1CC1)c1cc(-c2ccc(OCCN3CCOCC3)c(F)c2)cc(C(=O)NCc2c(C)cc(C)[nH]c2=O)c1C` [Compound 74, N-((4,6-dimethyl-2-oxo-1,2-dihydropyridin-3-yl)methyl)-5-(N-ethylcyclopropanecarboxamido)-3′-fluoro-4-methyl-4′-(2-morpholinoethoxyl)-[1,1′-diphenyl]-3-carboxamide]: in assay [1], the IC50 is 23 nM; the “activity compared with control compounds” value was “superior activity than control compounds GSK126 and EPZ6438”. This molecule also registered an IC50 in assay [2] of 0.093 µM.
